The values that follow come from patent US11667649B2, “Heteroaromatic macrocyclic ether chemotherapeutic agents” (Nuvalent, Inc., priority 2020, dated 2023).

One assay has as its target T1, ROS1-wt kinase domain (Homo sapiens, UniProt P08922).
T1 construct: TRKA-wt (1 nM, BPS Bio, 40280) kinase domains in buffer; purchased Carna 08-163
Description: Biochemical kinase assay, ROS1-wt. To be noted: 2 mM ATP substrate solution, read-out: Ki^app ROS1-wt. On the procedure: (§1) First, 250 nL of compound dissolved in DMSO (100-fold of the desired concentration) was dispensed into a 384-well plate. A 12.5 μL substrate solution containing ATP (2 mM) and fluorogenic phosphorylation substrate AQT0101 (26 μM for ALK and ROS1, AssayQuant) or AQT0104 (26 μM for TRKA, AssayQuant) in buffer (50 mM HEPES pH 7.5, 0.01% Brij-35, 0.5 mM EGTA, 10 mM MgCl2) was added and mixed thoroughly. Then, a 12.5 μL kinase solution containing ALK-wt (1.5 nM, Carna, 08-518), ALK ALK L1196M/G1202R (3 nM, SignalChem, A19-12NG), ROS1-wt (0.6 nM, Carna, 08-163), ROS1-G2032R (0.5 nM, SignalChem, R14-12BG), or TRKA-wt (1 nM, BPS Bio, 40280) kinase domains in buffer ([…] HEPES pH 7.5, 0.01% Brij-35, 2% glycerol, 0.4 mg/mL BSA, 0.5 mM EGTA, and 10 mM MgCl2) was added and mixed thoroughly. The plate was sealed and read by SpectraMax Paradigm at λ=485 nm every 2 minutes for 120 minutes at 30° C. Initial rates of reaction (v) were calculated from the change in fluorescence intensity over time during the initial, linear portion of the reaction. Finally, apparent inhibitory constants (Ki^app) were determined from regression of v and I (inhibitor concentration) to Morrison Equation (E=enzyme concentration): […]

Assay [1] has as its target T2, ROS1-G2032R kinase domain (Homo sapiens, UniProt P08922, G2032R).
T2 construct: TRKA-wt (1 nM, BPS Bio, 40280) kinase domains in buffer; purchased SignalChem R14-12BG
Description: Biochemical kinase assay, ROS1-G2032R. Conditions: 2 mM ATP substrate solution, read-out: Ki^app ROS1-G2032R. On the procedure:
as §1

For a further assay, the target named is T3, TRKA-wt kinase domain (Homo sapiens, UniProt P04629).
T3 construct: TRKA-wt (1 nM, BPS Bio, 40280) kinase domains in buffer; purchased BPS Bio 40280
Description: Biochemical kinase assay, TRKA-wt. To be noted: 2 mM ATP substrate solution, read-out: Ki^app TRKA-wt. As for the experimental part: as §1

Another assay addresses T4, ALK-wt kinase domain (Homo sapiens, UniProt Q9UM73).
T4 construct: TRKA-wt (1 nM, BPS Bio, 40280) kinase domains in buffer; purchased Carna 08-518
Nature of the assay: Biochemical kinase assay, ALK-wt. Conditions: 2 mM ATP substrate solution, read-out: Ki^app ALK-wt. On the procedure: as §1

The target in assay [2] is T5, ALK L1196M/G1202R kinase domain (Homo sapiens, UniProt Q9UM73, G1202R/L1196M).
T5 construct: TRKA-wt (1 nM, BPS Bio, 40280) kinase domains in buffer; purchased SignalChem A19-12NG
Description: Biochemical kinase assay, ALK L1196M/G1202R. To be noted: 2 mM ATP substrate solution, read-out: Ki^app ALK-L1196M-G1202R. As for the experimental part:
as §1

Consider `CCn1ncc2c1-c1cnc(N)c(c1)O[C@H](C)c1cc(F)ccc1-n1nccc1C2` [Compound 33], for which the Ki (on ROS1-wt kinase domain; in assay [1]; on TRKA-wt kinase domain; on ALK-wt kinase domain; in assay [2]) was less than 50 nM in each case.

With `CCn1ncc2c1-c1cnc(N)c(c1)OCc1cc(F)ccc1-c1nccn1C2` [Compound 34], the Ki was less than 50 nM on ROS1-wt kinase domain; 50 to 500 nM in assay [1]; more than 500 nM at TRKA-wt kinase domain; less than 50 nM at ALK-wt kinase domain; less than 50 nM in assay [2].

In the case of `CCn1ncc2c1-c1cnc(N)c(c1)OC(C)c1cc(F)ccc1-c1ccncc1C2` (centres unmarked) [Compound 36], the Ki on ROS1-wt kinase domain is less than 50 nM; in assay [1], less than 50 nM; on TRKA-wt kinase domain, 50 to 500 nM; on ALK-wt kinase domain, less than 50 nM; in assay [2] it was less than 50 nM.

As to `CC1Oc2cc(cnc2N)-c2c(cnn2C2CCC2)Cn2ccnc2-c2ccc(F)cc21` (centres unmarked) [Compound 37], the Ki on ROS1-wt kinase domain was less than 50 nM; in assay [1], less than 50 nM; on TRKA-wt kinase domain, 50 to 500 nM; at ALK-wt kinase domain, less than 50 nM; in assay [2], less than 50 nM.

Turning to `CCn1ncc2c1-c1cnc(N)c(c1)OC(C)c1cc(F)ccc1-n1cncc1C2` (centres unmarked) [Compound 38], the Ki was less than 50 nM at ROS1-wt kinase domain; less than 50 nM in assay [1]; more than 500 nM at TRKA-wt kinase domain; less than 50 nM on ALK-wt kinase domain; 50 to 500 nM in assay [2].

As for `CC1Oc2cc(cnc2N)-c2c(cnn2CCF)Cn2ccnc2-c2ccc(F)cc21` (centres unmarked) [Compound 39], the Ki on ROS1-wt kinase domain is less than 50 nM; in assay [1], less than 50 nM; at TRKA-wt kinase domain, more than 500 nM; on ALK-wt kinase domain, less than 50 nM; in assay [2], 50 to 500 nM.

For `CC1Oc2cc(cnc2N)-c2c(cnn2CC(F)F)Cn2ccnc2-c2ccc(F)cc21` (centres unmarked) [Compound 40], the Ki on ROS1-wt kinase domain was less than 50 nM; in assay [1], less than 50 nM; at TRKA-wt kinase domain, more than 500 nM; at ALK-wt kinase domain, less than 50 nM; in assay [2], 50 to 500 nM.

As to `CCn1ncc2c1-c1cnc(N)c(c1)OCc1cc(F)ccc1-n1nccc1C2` [Compound 41], the Ki on ROS1-wt kinase domain is less than 50 nM; in assay [1], less than 50 nM; on TRKA-wt kinase domain, more than 500 nM; at ALK-wt kinase domain, less than 50 nM; in assay [2], less than 50 nM.

Turning to `CCn1ncc2c1-c1cnc(N)c(c1)OC(C)c1cc(F)ccc1-c1ncncc1C2` (centres unmarked) [Compound 42], the Ki is less than 50 nM at ROS1-wt kinase domain; less than 50 nM in assay [1]; 50 to 500 nM at TRKA-wt kinase domain; less than 50 nM on ALK-wt kinase domain; less than 50 nM in assay [2].

For `CC1Oc2cc(cnc2N)-c2c(cnn2C(F)F)Cn2ccnc2-c2ccc(F)cc21` (centres unmarked) [Compound 44], the Ki on ROS1-wt kinase domain was less than 50 nM; in assay [1], less than 50 nM; on TRKA-wt kinase domain, 50 to 500 nM; at ALK-wt kinase domain, less than 50 nM; in assay [2] it was 50 to 500 nM.

In the case of `CCn1ncc2c1-c1cnc(N)c(c1)O[C@H](C)c1cc(F)ccc1-c1nc(C)cn1C2` [Compound 45], the Ki (at ROS1-wt kinase domain; in assay [1]; on TRKA-wt kinase domain; at ALK-wt kinase domain; in assay [2]) was less than 50 nM in each case.

In the case of `CCn1ncc2c1-c1cnc(N)c(c1)O[C@H](C)c1cc(F)ccc1-n1ncc(C#N)c1C2` [Compound 47], the Ki on ROS1-wt kinase domain was less than 50 nM; in assay [1], less than 50 nM; at TRKA-wt kinase domain it was 50 to 500 nM; at ALK-wt kinase domain it was less than 50 nM; in assay [2] it was 50 to 500 nM.

Take `CCn1ncc2c1-c1cnc(N)c(c1)OCc1cc(F)ccc1-n1ncc(F)c1C2` [Compound 48]: the Ki on ROS1-wt kinase domain is less than 50 nM; in assay [1] it was less than 50 nM; on TRKA-wt kinase domain, more than 500 nM; at ALK-wt kinase domain, less than 50 nM; in assay [2] it was less than 50 nM.

With `CCn1ncc2c1-c1cnc(N)c(c1)OCc1cc(F)ccc1-c1nn(C)cc1C2` [Compound 49], the Ki at ROS1-wt kinase domain is less than 50 nM; in assay [1], 50 to 500 nM; at TRKA-wt kinase domain, more than 500 nM; on ALK-wt kinase domain, less than 50 nM; in assay [2] it was 50 to 500 nM.

Consider `CCc1ncn2c1-c1cnc(N)c(c1)O[C@H](C)c1cc(F)ccc1-c1nn(C)cc1C2` [Compound 50], for which the Ki (at ROS1-wt kinase domain; in assay [1]; at TRKA-wt kinase domain; on ALK-wt kinase domain; in assay [2]) was less than 50 nM in each case.

Take `CCn1ncc2c1-c1cnc(N)c(c1)O[C@H](C)c1cc(F)ccc1-n1nc(C(F)(F)F)cc1C2` [Compound 52]: the Ki is less than 50 nM on ROS1-wt kinase domain; less than 50 nM in assay [1]; 50 to 500 nM at TRKA-wt kinase domain; less than 50 nM on ALK-wt kinase domain; less than 50 nM in assay [2].

Consider `Cc1nn(CC2CC2)c2c1Cc1cn(C)nc1-c1ccc(F)cc1[C@@H](C)Oc1cc-2cnc1N` [Compound 53], for which the Ki was less than 50 nM at ROS1-wt kinase domain; less than 50 nM in assay [1]; 50 to 500 nM on TRKA-wt kinase domain; less than 50 nM at ALK-wt kinase domain; less than 50 nM in assay [2].

In the case of `Cc1nn(CC2CC2)c2c1Cc1c(nn(C)c1Cl)-c1ccc(F)cc1[C@@H](C)Oc1cc-2cnc1N` [Compound 54], the Ki is less than 50 nM at ROS1-wt kinase domain; less than 50 nM in assay [1]; more than 500 nM at TRKA-wt kinase domain; less than 50 nM at ALK-wt kinase domain; less than 50 nM in assay [2].

Consider `CCc1nn(C)c2c1-c1cnc(N)c(c1)OCc1cc(F)ccc1-n1nc(C)cc1C2` [Compound 55], for which the Ki on ROS1-wt kinase domain is less than 50 nM; in assay [1], less than 50 nM; on TRKA-wt kinase domain, 50 to 500 nM; on ALK-wt kinase domain it was less than 50 nM; in assay [2] it was less than 50 nM.

As for `C[C@H]1Oc2cc(cnc2N)-c2c(C#N)ncn2Cc2ccnn2-c2ccc(F)cc21` [Compound 58], the Ki at ROS1-wt kinase domain is less than 50 nM; in assay [1], less than 50 nM; on TRKA-wt kinase domain it was more than 500 nM; on ALK-wt kinase domain it was less than 50 nM; in assay [2], less than 50 nM.

In the case of `CC1Oc2cc(cnc2N)-c2c(nn(C)c2C#N)Cc2cnccc2-c2ccc(F)cc21` (centres unmarked) [Compound 59], the Ki is less than 50 nM at ROS1-wt kinase domain; 50 to 500 nM in assay [1]; 50 to 500 nM at TRKA-wt kinase domain; less than 50 nM on ALK-wt kinase domain; more than 500 nM in assay [2].

Consider `CC1Oc2cc(cnc2N)-c2c(C#N)cnn2Cc2cnn(C)c2-c2ccc(F)cc21` (centres unmarked) [Compound 60], for which the Ki at ROS1-wt kinase domain is less than 50 nM; in assay [1], 50 to 500 nM; at TRKA-wt kinase domain, more than 500 nM; on ALK-wt kinase domain, less than 50 nM; in assay [2], 50 to 500 nM.

In the case of `Cc1cc2n(n1)-c1ccc(F)cc1[C@@H](C)Oc1cc(cnc1N)-c1c(C#N)ncn1C2` [Compound 61], the Ki on ROS1-wt kinase domain was 50 to 500 nM; in assay [1], more than 500 nM; on TRKA-wt kinase domain, more than 500 nM; at ALK-wt kinase domain, 50 to 500 nM; in assay [2] it was more than 500 nM.

Turning to `C[C@H]1Oc2cc(cnc2N)-c2c(C#N)cnn2Cc2ccnn2-c2ccc(F)cc21` [Compound 62], the Ki was less than 50 nM at ROS1-wt kinase domain; 50 to 500 nM in assay [1]; more than 500 nM at TRKA-wt kinase domain; less than 50 nM on ALK-wt kinase domain; less than 50 nM in assay [2].

Consider `C[C@H]1Oc2cc(cnc2N)-c2c(C#N)ncn2Cc2cc(F)cnc2-c2ccc(F)cc21` [Compound 63], for which the Ki on ROS1-wt kinase domain was less than 50 nM; in assay [1], less than 50 nM; at TRKA-wt kinase domain it was more than 500 nM; at ALK-wt kinase domain, less than 50 nM; in assay [2], less than 50 nM.

For `C[C@H]1Oc2cc(cnc2N)-c2c(C#N)ncn2Cc2scnc2-c2ccc(F)cc21` [Compound 64], the Ki at ROS1-wt kinase domain is less than 50 nM; in assay [1] it was less than 50 nM; at TRKA-wt kinase domain, more than 500 nM; on ALK-wt kinase domain it was less than 50 nM; in assay [2] it was less than 50 nM.

On to `Cc1nc2c(s1)Cn1cnc(C#N)c1-c1cnc(N)c(c1)O[C@H](C)c1cc(F)ccc1-2` [Compound 65], for which the Ki at ROS1-wt kinase domain is less than 50 nM; in assay [1] it was less than 50 nM; on TRKA-wt kinase domain it was more than 500 nM; on ALK-wt kinase domain it was less than 50 nM; in assay [2], less than 50 nM.

With `Cc1nc2c(s1)Cn1ncc(C#N)c1-c1cnc(N)c(c1)O[C@H](C)c1cc(F)ccc1-2` [Compound 67], the Ki on ROS1-wt kinase domain is less than 50 nM; in assay [1] it was less than 50 nM; at TRKA-wt kinase domain, 50 to 500 nM; on ALK-wt kinase domain, less than 50 nM; in assay [2] it was less than 50 nM.
